Where “and” joins values, the source holds several entries; their conditions need not be identical. Equal values may be shown once. Read-outs that look alike come from different tables or passages of the source.
What was measured:
subline C26G = assay: Cytotoxicity, continuous drug exposure 72 hours, SRB assay; assay type: cell-based, murine; conditions: 72 hours continuous exposure, read-out: IC50 cytotoxicity C2G-G
Text: (§1) The cytoxicity activity of Gemcitabine-N^4-elaidic amide and Gemcitabine-5′-elaidic ester were investigated in 2 pairs of rodent and human tumour cell lines, each consisting of a parent line and a subline either resistant or cross-resistant to Gemcitabine.
(§2) The cell lines were the human ovarian tumour line A2780 and subline AG6000 which is resistant to Gemcitabine and has a deficiency of deoxycytidine kinase, and the murine colon tumour line C26A and the subline C26G with no altered deoxycytidine kinase but a 10-fold decrease in thymidine kinase I. The cytotoxicity of each compound was evaluated following continuous drug exposure for 72 hours. The cell numbers were determined by SRB assay, and percentage growth inhibition was calculated for each tumour line as IC50 value, given in μM, that is the concentration of the compound giving rise to a 50% growth inhibition compared to control.

[1] = tested on: subline AG6000 (resistant to Gemcitabine, deficiency of deoxycytidine kinase); assay: as above; assay type: cell-based, human
Text: as §1, §2

[2] = tested on: murine colon tumour line C26A; assay: as above; assay type: cell-based; conditions: 72 hours continuous exposure, read-out: IC50 cytotoxicity C26-A
Text: as §1, §2

[3] = tested on: human ovarian tumour line A2780; assay: as above; assay type: cell-based
Text: as §1, §2

[4] = tested on: murine colon cancer Co-26; assay: Co-26 inoculated intrasplenic to mice, intraperitoneal treatment; assay type: in vivo
Protocol: (§3) The anti tumour effect of Gemcitabine-N^4-elaidic amide or Gemcitabine-5′-elaidic ester were investigated in-vivo in mice in two different tumour types, both with single and repeated dosing
Balb/c female mice were inoculated with the murine colon cancer Co-26 in the spleen on day 0. In this model, tumours develop mainly in the liver. Intraperitoneal treatment was started on day 1. Single doses of the compounds were tested in comparison with Gemcitabine at single dose. Saline was used as control.
In parallel experiment, dosing was repeated on days 1-11

[5] = tested on: murine lymphatic leukaemia P 388 cells; assay: P-388 ip in mice, single or repeated doses; assay type: in vivo
Text: as §3
B6D2F1 female mice were implanted with the murine lymphatic leukaemia P 388 cells intraperitoneally. Treatments were initiated on day 1 post implantation of cells intraperitoneally. […] Single dose treatment with Gemcitabine-5′-elaidic ester was effective with prolonged survival time and long term survivor observed compared to the same dose of Gemcitabine.

CEM cells = assay: Cytostatic activity in CEM cells with and without nucleoside transport modifiers; assay type: cell-based; conditions: for Rise in IC50 with the addition of NT inhibitors: with versus without NT inhibitors
Protocol: The cytostatic activity of gemcitabine and gemcitabine-5′-elaidic acid ester in CEM cells was determined with and without the nucleoside transport modifiers Nitrobenzylthioinosine (NBMPR) or Persantine (Pyridamole). […] With the addition of NT inhibitors, there is a ten-fold rise in the IC50 gemcitabine values, while the IC50 gemcitabine-5′-elaidic acid ester is little affected (1.3-1.5 increase).

[6] = cited from earlier work
[7] = Co-26, repeated dosing days 1-11, 1 mg/kg
[8] = Co-26, repeated dosing days 1-11, 4 mg/kg
[9] = Co-26, single dose ip day 1, 25 mg/kg
[10] = P-388, repeated dose days 1-4, 1 Mg/kg
[11] = P-388, repeated dose days 1-4, 4 Mg/kg
[12] = P-388, repeated dose days 1-11, 1 mg/kg
[13] = P-388, repeated dose days 1-11, 4 mg/kg
[14] = Co-26, single dose ip day 1, 75 mg/kg
[15] = Co-26, single dose ip day 1, 100 mg/kg
[16] = P-388, single dose treatment, 75 mg/kg
[17] = P-388, single dose treatment, 100 mg/kg
[18] = P-388, repeated dose days 1-4, 15 Mg/kg

SMILES	IC50 (subline C26G)	IC50 ([1]; 72 hours continuous exposure)	IC50 [2]	IC50 ([3]; 72 hours continuous exposure)	Long term survivors (>46 d) [4, 7]	Mean survival time T/C [4, 7]	Toxic deaths [4, 7]	Long term survivors (>46 d) [4, 8]	Mean survival time T/C [4, 8]	Toxic deaths [4, 8]	Long term survivors (>45 d) [5, 12]	Mean survival time T/C [5, 12]	Toxic deaths [5, 12]	Long term survivors (>45 d) [5, 13]	Mean survival time T/C [5, 13]	Toxic deaths [5, 13]	Long term survivors (>35 d) [4, 14]	Mean survival time T/C [4, 14]	Toxic deaths [4, 14]	Long term survivors (>35 d) [4, 15]	further results
CCCCCCCC/C=C/CCCCCCCC(=O)Nc1ccn(C2OC(CO)C(O)C2(F)F)c(=O)n1 (centres unmarked) [Gemcitabine-N^4-elaidic amide, Elaidic Acid (N^4)-Gemcitabine Amide]	< 0.0001 µM	35 µM	< 0.0001 µM	< 0.0001 µM	 2/8	155%	 0/8	⅛	185.6%	 0/8	⅙	172.5%	 0/6	 0/6	215.7%	 0/6					Long term survivors (>35 d) [4, 9]: 5/8 and ⅝; Mean survival time T/C [4, 9]: 103.7%; Toxic deaths [4, 9]: ⅛; Long term survivors (>35 d) [5, 10]:  2/6; Mean survival time T/C [5, 10]: 178%; Toxic deaths [5, 10]:  0/6; Long term survivors (>35 d) [5, 11]: ⅙; Mean survival time T/C [5, 11]: 183%; Toxic deaths [5, 11]:  0/6
CCCCCCCC/C=C/CCCCCCCC(=O)OC[C@H]1O[C@@H](n2ccc(N)nc2=O)C(F)(F)[C@@H]1O [Gemcitabine-5′-elaidic ester, Elaidic Acid (5′)-Gemcitabine Ester]	0.0005 µM	100 µM	0.0003 µM	< 0.0001 µM	⅛	150.6%	 0/8	⅜	166.9%	 2/8	 0/6	317.0%	 0/6	 2/6	220.6%	 0/6	 1/7	128.6%	 0/7	 4/7	Mean survival time T/C [4, 15]: 100.1%; Toxic deaths [4, 15]:  0/7; Long term survivors (>35 d) [5, 16]: ⅙; Mean survival time T/C [5, 16]: 186.3%; Toxic deaths [5, 16]:  0/6; Long term survivors (>35 d) [5, 17]:  0/6; Mean survival time T/C [5, 17]: 138.9%; Toxic deaths [5, 17]:  0/6; IC50 (CEM cells; CEM cells, NBMPR 100 μM, read-out: IC50 NBMPR 100 μM): 0.072 ± 0.034 µM; IC50 (CEM cells; CEM cells, Persantine 4 μg/ml, read-out: IC50 Persantine 4 μg/ml): 0.065 ± 0.023 µM; IC50 (CEM cells; CEM cells, no inhibitor, read-out: IC50 No inhibitor): 0.047 ± 0.006 µM; Potency relative to the mother drug in the "resistant" situation (CEM cells; CEM cells, with NT inhibitors, versus gemcitabine): 15-20 fold; Rise in IC50 with the addition of NT inhibitors (CEM cells; CEM cells): 1.3-1.5 fold
Nc1ccn([C@@H]2O[C@H](CO)[C@@H](O)C2(F)F)c(=O)n1 [Gemcitabine, 2′,2′-difluoro-deoxycytidine]					 2/8	170.6%	⅛	 0/8	toxic	 8/8	 0/6	178.8%	 0/6	 0/6	71.9%	6/6	 2/7	132.8%	 0/7	 4/7	Plasma concentration that inhibits the anti-cancer effect (saturation of the phosphorylation mechanism) [6]: above 35 μM; Plasma concentration with optimal effect [6]: about 20 μM; IC50 (subline C26G; Mus musculus): 0.0075 µM; IC50 ([1]; Homo sapiens, AG6000, 72 hours continuous exposure): 100 µM; IC50 ([2]; Mus musculus): 0.0055 µM; IC50 ([3]; Homo sapiens, A2780, 72 hours continuous exposure): 0.0005 µM; Mean survival time T/C [4, 15]: 116.2%; Toxic deaths [4, 15]:  0/7; Long term survivors (>35 d) [5, 18]:  0/6; Mean survival time T/C [5, 18]: 58.0%; Toxic deaths [5, 18]: all animals died of toxicity and  6/6; Long term survivors (>35 d) [5, 16]:  0/6; Mean survival time T/C [5, 16]: 138.9%; Toxic deaths [5, 16]:  0/7; Rise in IC50 with the addition of NT inhibitors (CEM cells; CEM cells): ten-fold rise; IC50 (CEM cells; Homo sapiens, CCRF-CEM, read-out: IC50 Persantine 4 μg/ml): 1.26 ± 0.04 µM; IC50 (CEM cells; Homo sapiens, CCRF-CEM, CEM cells, NBMPR 100 μM, read-out: IC50 NBMPR 100 μM): 1.11 ± 0.08 µM; IC50 (CEM cells; Homo sapiens, CCRF-CEM, CEM cells, no inhibitor, read-out: IC50 No inhibitor): 0.11 ± 0.01 µM
